We go through 6 molecules from ChEMBL document CHEMBL4251689, “Azabicyclic Fused Pyrimidine Derivatives Useful for the Treatment of Alzheimer's Disease” (ACS Med Chem Lett, 2018).

Broadly, the EC50 is the concentration giving half of the maximal effect.

This assay concerns the target Gamma-secretase. Briefly: Inhibition of gamma-secretase (unknown origin) assessed as reduction in amyloid beta (1 to 42) production after 60 mins by cell based AlphaLisa assay. Also noted: species or system Homo sapiens. (In general: Bead proximity is the source of the signal in Alpha formats.)
As to `CNc1nc(N[C@@H]2[C@@H]3CC[C@H]2CN(c2cc(C)ncn2)C3)nc2c1C(C)(C)CN2C1CC(F)(F)C1`, the EC50 amounted to 0.036 µM.

As for `CNc1nc(N[C@@H]2[C@@H]3CC[C@H]2CN(c2cc(C)ncn2)C3)nc2c1C(C)(C)CN2c1ccc(F)cc1`, the EC50 turned out to be 0.014 µM.

For the molecule `CNc1nc(N[C@@H]2[C@@H]3CC[C@H]2CN(c2cc(C)ncn2)C3)nc2c1C(C)(C)CN2C12CC(C(F)(F)F)(C1)C2`, the EC50 was 0.111 µM.

For the molecule `CNc1nc(N[C@@H]2[C@@H]3CC[C@H]2CN(c2nnc(C)o2)C3)nc2c1C(C)(C)CN2c1ccc(F)cc1`, the EC50 came out at 0.034 µM.

`CNc1nc(N[C@@H]2[C@@H]3CC[C@H]2CN(c2ccnnc2)C3)nc2c1C(C)(C)CN2c1ccc(F)cc1`: the EC50 came out at 0.019 µM.

As for `CNc1nc(N[C@@H]2[C@@H]3CC[C@H]2CN(c2cc(C)ncn2)C3)nc2c1C(C)(C)CCN2c1ccc(F)cc1`, the EC50 came to 0.035 µM.
